Test results as given in patent US8076332B2, “N- (2-aminophenyl) benzamide derivative having urea structure” (Santen Pharmaceutical Co., Ltd., priority 2006, dated 2011).

Legend:
[1] = test system: human trabecular meshwork cell line (TM-1 cells); assay: Test for evaluation of effect of morphological change on trabecular meshwork cells (cell shape index, CSI); format: cell-based; settings: final concentration 10 μM, incubation 24 hours, CSI=4π×(Cell Area)/(Cell Perimeter)^2, average per group, Control 0.730
Procedure: 1. Test for Evaluation of Effect of Morphological Change on Trabecular Meshwork Cells
As a method for evaluating a cellular morphological change, an evaluation system using the cell shape index (hereinafter referred to as “CSI”) as an index has been reported in The Journal of Clinical Investigation, 103, 1141-1150 (1999). Therefore, according to the method described in the above document, an effect of morphological change of the present compounds on trabecular meshwork cells was evaluated.
A human trabecular meshwork cell line (hereinafter referred to as “TM-1 cells”) reported in Investigative Opthalmology & Visual Science, 43, 151-161 (2002) was used.
Culture medium 1: A reagent was prepared by adding fetal bovine serum (10%), L-glutamine (2 mM), amphotericin B (2.5 μg/mL), and gentamicin (25 μg/mL) to Dulbecco's modified Eagle medium (hereinafter referred to as “D-MEM”).
Culture medium 2: Fetal bovine serum (3%), L-glutamine (2 mM), amphotericin B (2.5 μg/mL), and gentamicin (25 μg/mL) were added to D-MEM.
Cell staining liquid: A mixed liquid of Calcein-AM (16 μM) and Hoechst 33342 (40 μM) was prepared by diluting a Calcein-AM solution (cytoplasmic staining reagent, manufactured by Dojindo Laboratories) and a Hoechst 33342 solution (nuclear staining reagent, manufactured by Dojindo Laboratories) with D-MEM containing L-glutamine (2 mM), amphotericin B (2.5 μg/mL), and gentamicin (25 μg/mL).
TM-1 cells subcultured at 37° C. in a 8% carbon dioxide gas atmosphere were treated with a trypsin/EDTA solution (0.05% trypsin and 0.53 mM tetrasodium ethylenediaminetetraacetate) at 24 hours before performing a drug treatment mentioned below and seeded on a 96-well culture plate. The culture medium 1 was used for the subculture of the cells. The culture medium 2 was used for the cell culture after seeding the cells on the plate.
A test compound was dissolved in dimethyl sulfoxide, whereby a 5 mM solution was prepared. Then, the resulting solution was diluted with the culture medium 2, whereby a 200 μM test compound solution was prepared.
It has been reported that Y-27632 which is a Rho kinase inhibitor induces a morphological change in trabecular meshwork cells in Investigative Ophthalmology & Visual Science, 42, 137-144 (2001). Therefore, Y-27632 (produced according to the method described in WO 90/05723) was used as a positive control, and dissolved in dimethyl sulfoxide in the same manner as the test compound, whereby a 5 mM solution was prepared, and then, the resulting solution was diluted with the culture medium 2, whereby a 200 μM positive control compound solution was prepared.
1) To a 96-well culture plate, a solution of TM-1 cells adjusted to a cell density of […] was added in an amount of 95 μL (1.5×10^4 cells) per well.
2) Incubation was performed at 37° C. in a 8% carbon dioxide gas atmosphere for 24 hours.
3) The test compound solution or positive control compound solution was added in an amount of 5 μL per well (the final concentration of the test compound or positive control compound was 10 μM). As a control, the culture medium 2 containing dimethyl sulfoxide (4%) was added in an amount of 5 μL per well.
4) Incubation was performed at 37° C. in a 8% carbon dioxide gas atmosphere for 24 hours.
5) The cell staining liquid was added in an amount of 10 μL per well.
6) Incubation was performed at 37° C. in a 8% carbon dioxide gas atmosphere for 1 hour to stain the cells.
7) A 37% formaldehyde solution was added in an amount of 10 μL per well.
8) Incubation was performed at room temperature for 1 hour to fix the cells.
9) Washing with phosphate-buffered saline was performed.
10) Using Array Scan Vti HCS reader (manufactured by Cellomics), images of stained cells magnified with a 20 times objective lens were captured in 80 fields (10 fields×8 wells) per test compound addition group.
11) CSI was calculated for each cell and an average value was obtained for each test compound addition group. […]

[2] = test system: male Japanese White rabbits; assay: Test for evaluation of intraocular pressure-lowering effect (intracameral administration); format: in vivo; settings: 20 μL of 1 mM administration liquid to one eye, at 9 hours after administering, versus vehicle control group, 6 cases per group
Procedure: 2. Test for Evaluation of Intraocular Pressure-Lowering Effect
In order to evaluate an intraocular pressure-lowering effect of the present compounds, a test for evaluation of intraocular pressure-lowering effect of intracameral administration of a drug using male Japanese White rabbits was performed.
A test compound was dissolved or suspended in physiological saline containing 0.5% dimethyl sulfoxide, whereby a 1 mM test compound administration liquid was prepared.
One drop of 0.4% oxybuprocaine hydrochloride eye drop was instilled into both eyes of each male Japanese White rabbit to achieve local anesthesia, and thereafter, the intraocular pressure was measured using an applanation tonometer. Then, by using a syringe fitted with a 30-gauge needle, the test compound administration liquid (20 μL) was intracamerally administered to one eye. As a control, 20 μL of the vehicle (physiological saline containing 0.5% dimethyl sulfoxide) for the test compound was intracamerally administered. After the lapse of a certain period of time from the administration of the test compound or vehicle, one drop of 0.4% oxybuprocaine hydrochloride eye drop was instilled into the administered eye to achieve local anesthesia, and thereafter, the intraocular pressure was measured using an applanation tonometer.
The intraocular pressure-lowering effect of each test compound was evaluated by calculating an intraocular pressure reduction rate. The intraocular pressure reduction rate (%) was calculated using the following equation. (Intraocular Pressure Reduction rate(%))=100×(Average Value of Intraocular Pressure of Control Group)−(Average Value of Intraocular Pressure of Each Test Compound Administration Group)/(Average Value of Intraocular Pressure of Control Group) (Test Results)
As an example of the test results, the intraocular pressure reduction rates of the respective test compound administration groups at 9 hours after administering the respective test compounds (Compound 1-59, Compound 1-80, and Compound 2-2) are shown in Table II (one group consisting of 6 cases).

Nc1ccccc1NC(=O)c1ccc(CN(CCCN2CCOCC2)C(=O)NCCc2ccc3c(c2)OCO3)cc1 [Compound 1-59, N-(2-Aminophenyl)-4-[3-[2-(benzo[1,3]dioxol-5-yl)ethyl]-1-[3-(morpholin-4-yl)propyl]ureidomethyl]benz-amide]
CSI [1]: 0.571 | Intraocular Pressure Reduction Rate (%) [2]: 19%

CN(C)CCN(Cc1ccc(C(=O)Nc2ccccc2N)cc1)C(=O)Nc1ccc2c(c1)OCCO2 [Compound 1-80, N-(2-Aminophenyl)-4-[3-(2,3-dihydrobenzo[1,4]dioxin-6-yl)-1-(2-dimethylamino-ethyl)ureidomethyl]benzamide]
CSI [1]: 0.543 | Intraocular Pressure Reduction Rate (%) [2]: 18%

CN1CCN(CCN(Cc2ccc(C(=O)Nc3ccccc3N)cc2)C(=O)Nc2ccc(F)c(F)c2)CC1 [Compound 1-113, N-(2-Aminophenyl)-4-[3-(3,4-difluorophenyl)-1-[2-(4-methylpiperazin-1-yl)ethyl]-ureidomethyl]benzamide]
CSI [1]: 0.585

CC1CCN(CCCN(Cc2ccc(C(=O)Nc3ccccc3N)cc2)C(=O)Nc2ccc3c(c2)OCCO3)CC1 [Compound 1-128, N-(2-Aminophenyl)-4-[3-(2,3-dihydrobenzo[1,4]dioxin-6-yl)-1-[3-(4-methylpiper-idin-1-yl)propyl]ureido-methyl]benzamide]
CSI [1]: 0.554

Nc1ccccc1NC(=O)c1ccc(CN(CCCN2CCOCC2)C(=O)Nc2ccsc2)cc1 [Compound 1-134, N-(2-Aminophenyl)-4-[1-(3-(morpholin-4-yl)propyl]-3-(thiophen-3-yl)ureido-methyl]benzamide]
CSI [1]: 0.580

Cc1cc(NC(=O)N(CCCN2CCOCC2)Cc2ccc(C(=O)Nc3ccccc3N)cc2)ccc1F [Compound 1-135]
CSI [1]: 0.555

Nc1ccccc1NC(=O)c1ccc(CN(CCCN2CCOCC2)C(=O)Nc2ncc([N+](=O)[O-])s2)cc1 [Compound 1-165, N-(2-Aminophenyl)-4-[1-(3-(morpholin-4-yl)propyl]-3-(5-nitrothiazol-2-yl)ureido-methyl]benzamide]
CSI [1]: 0.578

Nc1ccccc1NC(=O)c1ccc(CN(CCCN2CCCC2)C(=O)Nc2ccc3c(c2)OCCO3)cc1 [Compound 1-169, N-(2-Aminophenyl)-4-[3-(2,3-dihydrobenzo[1,4]dioxin-6-yl)-1-[3-(pyrrolidin-1-yl)propyl]ureidomethyl]benz-amide]
CSI [1]: 0.566

CN(C)CCCN(Cc1ccc(C(=O)Nc2ccccc2N)cc1)C(=O)Nc1ccc(F)c(F)c1 [Compound 2-2, N-(2-Aminophenyl)-4-[3-(3,4-difluorophenyl)-1-(3-dimethylaminopropyl)ureidomethyl]benzamide]
CSI [1]: 0.585 | Intraocular Pressure Reduction Rate (%) [2]: 13%

COc1ccccc1NC(=O)N(CCCN(C)C)Cc1ccc(C(=O)Nc2ccccc2N)cc1 [Compound 2-3, N-(2-Aminophenyl)-4-[1-(3-dimethylaminopropyl)-3-(2-methoxyphenyl)ureidomethyl]benzamide]
CSI [1]: 0.618

CCOC(=O)CNC(=O)N(CCCN(C)C)Cc1ccc(C(=O)Nc2ccccc2N)cc1 [Compound 2-4]
CSI [1]: 0.664

CN(C)CCCN(Cc1ccc(C(=O)Nc2ccccc2N)cc1)C(=O)NC(C)(C)C [Compound 2-5, N-(2-Aminophenyl)-4-[3-t-butyl-1-(3-dimethylaminopropyl)ureidomethyl]benzamide]
CSI [1]: 0.570

CN(C)CCCN(Cc1ccc(C(=O)Nc2ccccc2N)cc1)C(=O)Nc1cccc(O)c1 [Compound 3-1, N-(2-Aminophenyl)-4-[1-(3-dimethylaminopropyl)-3-(3-hydroxyphenyl)ureidomethyl]benzamide]
CSI [1]: 0.616

C[C@@H](N)[C@H]1CC[C@H](C(=O)Nc2ccncc2)CC1 [Compound Y-27632, reference compound]
CSI [1]: 0.600
